Measured values published in US20230096443A1, “NOVEL NICOTINAMIDE DI-NUCLEOTIDE DERIVATIVES AND USE THEREOF” (NUVAMID SA, priority 2019, published 2023).

Legend:
[1] = tested on: doxorubicin-induced cardiotoxicity; assay: Model of doxorubicin-induced cardiotoxicity; format: in vivo, male mice; details: 5 days after DOX 20 mg/kg; for survival rate: 180 mg/kg i.p. once daily; for end-systolic LV volume: vs DOX vehicle group; for heart weight: vs DOX vehicle mice
Method: The aim of the present study was to evaluate, the effects of i.p administration of Nicotinamide Mononucleotide (NMN), compound I-B and compound I-C at 180 mg/kg in the progression of a cardiotoxicity induced by doxorubicin.
76 male mice, 8-week-old at the arrival were obtained from Janvier Labs, Le Genest St Isle, 53941 St Berthevin, France. Each animal was identified with electronic chip. Each cage was numbered. Based on the animal number/cage and number of cages, the animals were assigned of unique number with the name of group and mice number.
The powder of NMN, compounds I-B and I-C (180 mg/kg) were dissolved in vehicle (the solution is used at room temperature for maximum 1 day). A fresh sample for each administration was prepared every day except the week-end (the solution is prepared on Saturday and is used on Saturday and Sunday).
Cardiotoxicity was induced by a single intraperitoneal injection of doxorubicin (DOX) at 20 mg/kg. Doxorubicin was prepared at 2 mg/mL and volume of administration was 10 mL/Kg.
At D0, mice were injected with DOX (20 mg/kg) by intraperitoneal route.
The treatment with NMN, compounds I-B and I-C was initiated from 5 days before DOX injection, once per day, from D-5 to DO.
Mice were i.p treated with NMN, compounds I-B and I-C 30 min before DOX injection.
Mice were i.p treated with NMN, compounds I-B and I-C for the duration of the experiment (D0 to D5) once per day. Last injection occurred 24 hours before sacrifice.
The bodyweight was assessed at inclusion and at D5.
The survival rate was recorded every day until the end of the experiment (D5).
Retro-orbital blood collection was performed at the inclusion and at 1 and 5 days after the […] with DOX to assess biomarker (LDH and creatinine).
Echocardiography (ECG) was performed 5 days after doxorubicin injection in anesthetized (isoflurane 1.5-2%) animals with non-invasive two-dimensional echocardiography (VF16-5 probe, Siemens, Acuson NX3 Elite). After removing hairs on the chest, numeric images of the heart were obtained in both parasternal long-axis and short axis views.
The following cardiac function were assessed during ECG: • Left ventricle (LV) end-systolic and end-diastolic inner diameter; • LV end-systolic and end-diastolic volume, • Fractionnal shortening; • Ejection fraction; • Heart Rate; and • Anterior and posterior wall thickness in Diastole and in systole.

[2] = tested on: CYP-induced visceral pain; assay: Acute cyclophosphamide (CYP)-induced cystitis model, von Frey mechanical stimulation; format: in vivo, female Sprague-Dawley rats; details: 500 mg/kg p.o.
Method: The aim of the present study was to evaluate, the effects of oral administration of Nicotinamide Mono-Nucleoside (NMN), Pro-drug A (alpha-NMN) and Pro-drug B (compound I-A), compounds I-B and I-C at 500 mg/kg on visceral pain response in the acute cyclophosphamide (CYP)-induced cystitis model in female Sprague-Dawley rats.
Female Sprague-Dawley rats, 7 weeks at delivery
• NMN: 500 mg/kg • Pro-drug A: 500 mg/kg • Pro-drug B (compound I-A): 500 mg/kg • Compound I-B: 500 mg/kg • Compound I-C; 500 mg/kg • Vehicle: distilled water • Route of administration: per os (p.o.), 5 mL/kg • Frequency of administration: once at DO, 15 min prior CYP intraperitoneal (i.p.) injection.
=>lowered threshold=allodynia • Nociceptive score: % of the maximal response (total=9 for 3 pooled applications) for each filament

SS RBCs = assay: RBC sickling under hypoxia ex vivo (sickle cell disease mouse model); format: in vivo, Townes S/S mice; details: 1% O2 for 30 minutes ex vivo
Method: The aim of the present study was to evaluate, the effects of i.p. administration of Nicotinamide Mononucleotide (NMN), compound I-B and compound I-C at 185 mg/kg as modulator of red blood cell sickling and their potential role in therapy for sickle cell disease on a mouse model of SCD.
Townes S/S mice on a 129/B6 mixed genetic background.
The powder of NMN, compounds I-B and I-C (185 mg/kg) were dissolved in vehicle (the solution was used at room temperature for maximum 1 day). A fresh sample for each administration was prepared every day except the week-end (the solution is prepared on Saturday and is used on Saturday and Sunday).
In Townes S/S mice, mouse alpha- and beta-globin gene loci are deleted and replaced by human alpha- and beta-globins. When carrying two copies of the beta S allele, mice develop a human sickle cell disease phenotype with sickle-shaped red blood cells seen in blood smears.
Mice were i.p treated with NMN, compounds I-B and I-C during all the experiment (D0 to D15) once per day. Last injection occurred 24 hours before sacrifice.
Retro-orbital blood collection was performed at the inclusion D0 and at D5, D10 and D15 through facial vein bleeding.
Red blood cells collected were submitted to hypoxia (1% O2) for 30 minutes to induce sickling. Percentage of sickle cells was then assessed.
SS RBCs from treated mice were collected at D0, D5, D10 and D15 and were submitted to hypoxia for 30 minutes in a hypoxic chamber (1% O2). Percentage of sickling RBCs was then assessed for each time point with compounds NMN, I-B and I-C.

[3] = after 15 days treatment 185 mg/kg i.p. once daily

NC(=O)c1ccc[n+]([C@H]2O[C@H](COP(=O)([O-])OP(=O)([O-])OC[C@H]3O[C@H]([n+]4cccc(C(N)=O)c4)[C@H](O)[C@@H]3O)[C@@H](O)[C@H]2O)c1 [Compound I-C]
survival rate [1]: 100 % of survival
ejection fraction ([1]; 180 mg/kg i.p.): 58.2±0.5%
fractional shortening ([1]; 180 mg/kg i.p.): around 38%
LV anterior and posterior wall thickness in systole ([1]; 180 mg/kg i.p., vs DOX vehicle): non-significant increases
body weight loss after doxorubicin administration ([1]; 180 mg/kg i.p., vs DOX vehicle): significantly decreased
heart rate (change in words) ([1]; 180 mg/kg i.p., vs DOX vehicle): increased heart rates
end-systolic LV volume ([1]; 180 mg/kg i.p.): reduced
heart weight ([1]; 180 mg/kg i.p.): tended to increase heart weight
nociceptive scores (CYP-induced visceral pain) vs vehicle ([2]; +2 h after CYP): significant decrease
nociceptive scores (CYP-induced visceral pain) vs vehicle ([2]; +4 h after CYP): significant decrease
nociceptive scores (CYP-induced visceral pain) vs vehicle ([2]; +6 h after CYP): significant decrease
nociceptive threshold (CYP-induced allodynia) vs vehicle ([2]; +6 h after CYP): significant increase
percentage of sickling cells (SS RBCs; D0 (start of treatment)): 31%
percentage of sickling cells (SS RBCs; [3]): 20%

NC(=O)c1ccc[n+]([C@@H]2O[C@H](COP(=O)([O-])O)[C@@H](O)[C@H]2O)c1 [NMN, Nicotinamide Mononucleotide, reference compound]
survival rate [1]: 78 % of survival
ejection fraction ([1]; 180 mg/kg i.p.): 56.9±0.6%
fractional shortening ([1]; 180 mg/kg i.p.): around 38%
LV anterior and posterior wall thickness in systole ([1]; 180 mg/kg i.p., vs DOX vehicle): non-significant increases
body weight loss after doxorubicin administration ([1]; 180 mg/kg i.p., vs DOX vehicle): significantly decreased
heart rate (change in words) ([1]; 180 mg/kg i.p., vs DOX vehicle): increased heart rates
reduction in plasma LDH release/levels ([1]; 180 mg/kg i.p., vs DOX vehicle): more than 35%
end-systolic LV volume ([1]; 180 mg/kg i.p.): reduced
nociceptive scores (CYP-induced visceral pain) vs vehicle ([2]; +2 h after CYP): significant decrease
nociceptive threshold (CYP-induced allodynia) vs vehicle ([2]; +2 h after CYP): slight increase
nociceptive scores (CYP-induced visceral pain) vs vehicle ([2]; +4 h after CYP): significant decrease
nociceptive threshold (CYP-induced allodynia) vs vehicle ([2]; +4 h after CYP): slight increase
percentage of sickling cells (SS RBCs; D0 (start of treatment)): 40%
percentage of sickling cells (SS RBCs; [3]): less than 10%

NC(=O)c1ccc[n+]([C@@H]2O[C@H](COP(=O)([O-])OP(=O)([O-])OC[C@H]3O[C@H]([n+]4cccc(C(N)=O)c4)[C@H](O)[C@@H]3O)[C@@H](O)[C@H]2O)c1 [Compound I-B]
survival rate [1]: 98 % of survival
ejection fraction ([1]; 180 mg/kg i.p.): 60.0±0.6%
fractional shortening ([1]; 180 mg/kg i.p.): around 38%
heart rate ([1]; 180 mg/kg i.p.): 470.1±18.8 bpm
LV anterior and posterior wall thickness in systole ([1]; 180 mg/kg i.p., vs DOX vehicle): non-significant increases
body weight loss after doxorubicin administration ([1]; 180 mg/kg i.p., vs DOX vehicle): significantly decreased
end-systolic LV volume ([1]; 180 mg/kg i.p.): reduced
heart weight ([1]; 180 mg/kg i.p.): tended to increase heart weight
nociceptive scores (CYP-induced visceral pain) vs vehicle ([2]; +2 h after CYP): significant decrease
nociceptive scores (CYP-induced visceral pain) vs vehicle ([2]; +4 h after CYP): significant decrease
nociceptive scores (CYP-induced visceral pain) vs vehicle ([2]; +6 h after CYP): significant decrease
nociceptive threshold (CYP-induced allodynia) vs vehicle ([2]; +6 h after CYP): significant increase
percentage of sickling cells (SS RBCs; D0 (start of treatment)): 32%
percentage of sickling cells (SS RBCs; [3]): less than 15%

NC(=O)c1ccc[n+]([C@H]2O[C@H](COP(=O)([O-])O)[C@@H](O)[C@H]2O)c1 [Pro-Drug A, alpha-NMN, reference compound]
nociceptive scores (CYP-induced visceral pain) vs vehicle ([2]; +2 h after CYP): decrease
nociceptive threshold (CYP-induced allodynia) vs vehicle ([2]; +2 h after CYP): non-significant increase
nociceptive scores (CYP-induced visceral pain) vs vehicle ([2]; +4 h after CYP): achieved the statistical level
nociceptive threshold (CYP-induced allodynia) vs vehicle ([2]; +4 h after CYP): significant increase
